Measured values: PubChem BioAssay (NCI)
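Results reflect a 48-hour exposure of cells in 96-well plates to compound at five concentrations. TGI: concentration producing complete growth inhibition.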

Experiments:
Assay in all cases: NCI anticancer screen, dose series, 48 h
786-0 renal = tested on: 786-0 renal
A549 NSCLC = tested on: A549 NSCLC
ACHN renal = tested on: ACHN renal
CAKI-1 renal = tested on: CAKI-1 renal
CCRF-CEM leukemia = tested on: CCRF-CEM leukemia
COLO 205 colon = tested on: COLO 205 colon
DU-145 prostate = tested on: DU-145 prostate
EKVX NSCLC = tested on: EKVX NSCLC
HCT-116 colon = tested on: HCT-116 colon
HCT-15 colon = tested on: HCT-15 colon
HL-60(TB) leukemia = tested on: HL-60(TB) leukemia
HOP-62 NSCLC = tested on: HOP-62 NSCLC
HOP-92 NSCLC = tested on: HOP-92 NSCLC
HS 578T breast = tested on: HS 578T breast
HT29 colon = tested on: HT29 colon
IGROV1 ovarian = tested on: IGROV1 ovarian
K-562 leukemia = tested on: K-562 leukemia
KM12 colon = tested on: KM12 colon
LOX IMVI melanoma = tested on: LOX IMVI melanoma
M14 melanoma = tested on: M14 melanoma
MALME-3M melanoma = tested on: MALME-3M melanoma
MCF7 breast = tested on: MCF7 breast
MDA-MB-231 breast = tested on: MDA-MB-231 breast
MDA-MB-435 = tested on: MDA-MB-435
MOLT-4 leukemia = tested on: MOLT-4 leukemia
NCI-H226 lung = tested on: NCI-H226 lung
NCI-H23 lung = tested on: NCI-H23 lung
NCI-H460 lung = tested on: NCI-H460 lung
NCI-H522 lung = tested on: NCI-H522 lung
NCI/ADR-RES ovarian = tested on: NCI/ADR-RES ovarian
OVCAR-3 ovarian = tested on: OVCAR-3 ovarian
OVCAR-4 ovarian = tested on: OVCAR-4 ovarian
OVCAR-5 ovarian = tested on: OVCAR-5 ovarian
OVCAR-8 ovarian = tested on: OVCAR-8 ovarian
PC-3 prostate = tested on: PC-3 prostate
RPMI-8226 leukemia = tested on: RPMI-8226 leukemia
RXF 393 renal = tested on: RXF 393 renal
SF-268 CNS = tested on: SF-268 CNS
SF-295 CNS = tested on: SF-295 CNS
SF-539 CNS = tested on: SF-539 CNS
SK-MEL-2 melanoma = tested on: SK-MEL-2 melanoma
SK-MEL-28 melanoma = tested on: SK-MEL-28 melanoma
SK-MEL-5 melanoma = tested on: SK-MEL-5 melanoma
SK-OV-3 ovarian = tested on: SK-OV-3 ovarian
SN12C renal = tested on: SN12C renal
SNB-19 CNS = tested on: SNB-19 CNS
SNB-75 CNS = tested on: SNB-75 CNS
SR leukemia = tested on: SR leukemia
SW-620 colon = tested on: SW-620 colon
T-47D breast = tested on: T-47D breast
TK-10 renal = tested on: TK-10 renal
U251 CNS = tested on: U251 CNS
UACC-257 melanoma = tested on: UACC-257 melanoma
UACC-62 melanoma = tested on: UACC-62 melanoma
UO-31 renal = tested on: UO-31 renal

## N#CC(C#N)=C/C=C(\Sc1c(Cl)c(Cl)nc(Cl)c1Cl)c1ccc(Cl)cc1
786-0 renal
  TGI: 27.5 µM
A549 NSCLC
  TGI: > 100 µM
ACHN renal
  TGI: 37.8 µM
CAKI-1 renal
  TGI: 34.2 µM
CCRF-CEM leukemia
  TGI: > 100 µM
COLO 205 colon
  TGI: 55.4 µM
DU-145 prostate
  TGI: 47.5 µM
EKVX NSCLC
  TGI: > 100 µM
HCT-116 colon
  TGI: 34.8 µM
HCT-15 colon
  TGI: 30.1 µM
HL-60(TB) leukemia
  TGI: > 100 µM
HOP-62 NSCLC
  TGI: 96.6 µM
HOP-92 NSCLC
  TGI: > 100 µM
HS 578T breast
  TGI: 63.7 µM
HT29 colon
  TGI: > 100 µM
IGROV1 ovarian
  TGI: 53.6 µM
K-562 leukemia
  TGI: > 100 µM
KM12 colon
  TGI: 51.5 µM
LOX IMVI melanoma
  TGI: 20.5 µM
M14 melanoma
  TGI: 38.9 µM
MALME-3M melanoma
  TGI: 46.6 µM
MCF7 breast
  TGI: > 100 µM
MDA-MB-231 breast
  TGI: 60 µM
MDA-MB-435
  TGI: 20.3 µM
MOLT-4 leukemia
  TGI: > 100 µM
NCI-H226 lung
  TGI: 67.9 µM
NCI-H23 lung
  TGI: 35.9 µM
NCI-H460 lung
  TGI: > 100 µM
NCI-H522 lung
  TGI: 56.5 µM
NCI/ADR-RES ovarian
  TGI: 36.1 µM
OVCAR-3 ovarian
  TGI: 27.3 µM
OVCAR-4 ovarian
  TGI: > 100 µM
OVCAR-5 ovarian
  TGI: 44.6 µM
OVCAR-8 ovarian
  TGI: > 100 µM
PC-3 prostate
  TGI: > 100 µM
RPMI-8226 leukemia
  TGI: > 100 µM
RXF 393 renal
  TGI: 40 µM
SF-268 CNS
  TGI: 54.1 µM
SF-295 CNS
  TGI: 44.9 µM
SF-539 CNS
  TGI: 41.8 µM
SK-MEL-2 melanoma
  TGI: > 100 µM
SK-MEL-28 melanoma
  TGI: 49.7 µM
SK-MEL-5 melanoma
  TGI: 27.7 µM
SK-OV-3 ovarian
  TGI: 58.9 µM
SN12C renal
  TGI: 42.4 µM
SNB-19 CNS
  TGI: 43 µM
SNB-75 CNS
  TGI: 44.9 µM
SR leukemia
  TGI: 68.8 µM
SW-620 colon
  TGI: 25.9 µM
T-47D breast
  TGI: > 100 µM
TK-10 renal
  TGI: 41.2 µM
U251 CNS
  TGI: 33.3 µM
UACC-257 melanoma
  TGI: 37.2 µM
UACC-62 melanoma
  TGI: 30 µM
UO-31 renal
  TGI: > 100 µM
